US20250345309A1, “IMMUNE HEALTH IMPROVERS” (Amazentis SA, priority 2024, published 2025)

Assays:
T cells = experiment: T cell stimulation assay (αCD3/αCD28 beads, four days); format: in vivo, human; settings: PBMCs ex vivo
Method: To study the antigen response of T cells, 0.5×10^6 thawed PBMCs were pre-stained with CellTrace Violet (C34557 ThermoFisher Scientific) according to the manufacturer's instructions. After washing, they were plated in a 24 well plate for 24 h to deplete monocyte populations by plastic adherence. Next, cells in suspension were transferred to a new tube and centrifuged at 350 g for 5 min, followed by reconstitution in fresh T cell medium. Cells were stimulated with human αCD3/C28 stimulation beads (Dynabeads, ThermoFirsher) for four days, using a ratio of 25 μl Beads per 0.5×10^6 cells. Following the stimulation period, magnetic beads were discarded via magnetic separation and cells were stained with PE-Cy7 CD4, APC-Cy7CD8, CD45RA FITC, CCR7 AF700 and live/dead ef780. To study cytokine expression, Brefeldin A (Biolegend) was added to stimulated PBMCs for the last 3 hours. Cells were then washed and stained using the panel above, while intracellular staining for cytokine assessment was performed with BD Cytofix/Cytoperm (BD) with 20 min fixation and overnight incubation with αIL-4-CF594, αIFNγ-PE (XMG1.2; 45-7311-82; eBioscience) and αTNFa-APC (MP6-XT22; 563944; BD). Finally, samples were fixed with 1% PFA until data acquisition. To functionally characterize the human immune system after systemic UA supplementation further, proliferative capacity and cytokine secretion of T cells was assessed. PBMCs from both intervention groups were incubated in the presence of αCD3/αCD28 stimulation beads for a total of four days (FIG. 10A).

[1] = Laboratory chemistry / biochemical safety analysis; format: in vivo, human
Method: During the baseline and follow-up visits, blood was drawn by a physician or physician's assistant to assess blood biochemistry parameters and haematology. Analysis was performed using clinically validated systems at the University Hospital Frankfurt, Germany.

circulating immune cells = experiment: Clinical hemocytometry of circulating immune cells; format: in vivo, human; settings: d28 vs baseline, 1000 mg/day oral
Method: During the baseline and follow-up visits, blood was drawn by a physician or physician's assistant to assess blood biochemistry parameters and haematology. Analysis was performed using clinically validated systems at the University Hospital Frankfurt, Germany. The aim of the present study was to globally assess the effect of UA on the immune system, in particular with respect to parameters of immune aging. We therefore performed clinical hemocytometry to first categorize circulating immune cells, comparing immune composition at baseline and upon the last study visit (FIG. 1A).

TSCM = settings: in vitro (Denk et al. Immunity 2022); cited from earlier work
PBMCs = experiment: Single cell RNA sequencing of PBMCs; format: in vivo, human
DNA methylation = DNA methylation biological age clocks (TruDiagnostic); format: in vivo, human; settings: d28 vs start of intervention, 1000 mg/day oral; no decrease with placebo
Excerpt: Blood taken from the participants at baseline and the last study visit (d28) time points were applied to dried blood cards and processed by TruDiagnostic™. The test uses DNA methylation data analysis to calculate biological ages using the PhenoAge 2nd generation clock and the Hannum 1st generation clock. The Urolithin A intervention group's biological (immune cell-blood based) age was reduced by a median of about 2 years from the start of the intervention, as calculated by the PhenoAge clock (FIG. 11A). […] A decrease in biological age was not observed in the Placebo group.

[2] = after 28 days of UA compared to placebo

O=c1oc2cc(O)ccc2c2ccc(O)cc12 [Urolithin A]
CD8+ TCM/TEM phenotype distribution after CD3 receptor engagement (T cells): no treatment-specific distribution pattern
T cell proliferation (T cells; UA vs placebo, baseline vs d28): no difference
CD8+ expression of IFN-γ when stimulated (T cells; baseline vs d28): remained unchanged
IL-4 production of antigen challenged CD8+ cells (T cells; baseline vs d28, no change with placebo): reduced
Bilirubin (mean ± SD) ([1]; Group A d 28, 1000 mg/day oral, d 0 0.53 ± 0.31, p 0.28 n.s.): 0.49 ± 0.26 mg/dL
Creatinine (mean ± SD) ([1]; Group A d 28, 1000 mg/day oral, d 0 0.82 ± 0.13, p 0.80 n.s.): 0.81 ± 0.11 mg/dL
Albumin (mean ± SD) ([1]; Group A d 28, 1000 mg/day oral, d 0 4.54 ± 0.24, p 0.85 n.s.): 4.55 ± 0.24 g/dL
Uric acid (mean ± SD) ([1]; Group A d 28, 1000 mg/day oral, d 0 4.86 ± 1.43, p 0.25 n.s.): 5.04 ± 1.79 mg/dL
Total Serum Protein (mean ± SD) ([1]; Group A d 28, 1000 mg/day oral, d 0 7.02 ± 0.38, p 0.59 n.s.): 7.06 ± 0.35 g/dL
gGT (mean ± SD) ([1]; Group A d 28, 1000 mg/day oral, d 0 24.60 ± 15.90, p 0.07 n.s.): 27.13 ± 19.19 U/I
AST (mean ± SD) ([1]; Group A d 28, 1000 mg/day oral, d 0 27.26 ± 11.56, p 0.76 n.s.): 28.04 ± 16.10 U/I
ALT (mean ± SD) ([1]; Group A d 28, 1000 mg/day oral, d 0 28.00 ± 24.02, p 0.38 n.s.): 29.44 ± 30.27 U/I
HDL cholesterol (mean ± SD) ([1]; Group A d 28, 1000 mg/day oral, d 0 66.06 ± 13.51, p 0.06 n.s.): 62.98 ± 17.58 mg/dL
AP (mean ± SD) ([1]; Group A d 28, 1000 mg/day oral, d 0 75.40 ± 20.60, p 0.15 n.s.): 73.28 ± 19.22 U/I
LDL cholesterol (mean ± SD) ([1]; Group A d 28, 1000 mg/day oral, d 0 136.6 ± 33.95, p 0.89 n.s.): 136.2 ± 30.56 mg/dL
Triglycerides (mean ± SD) ([1]; Group A d 28, 1000 mg/day oral, d 0 154.0 ± 98.53, p 0.53 n.s.): 143.2 ± 70.34 mg/dL
Total Cholesterol (mean ± SD) ([1]; Group A d 28, 1000 mg/day oral, d 0 212.5 ± 33.60, p 0.89 n.s.): 213.0 ± 33.48 mg/dL
Changes in metabolic markers, kidney function parameters and liver enzymes ([1]; after the 28-day intervention period, 1000 mg/day oral): No significant changes
Monocytes (total count) (circulating immune cells): did not show marked alterations
Neutrophiles (total count) (circulating immune cells): did not show marked alterations
Total leukocytes (count) (circulating immune cells): did not show marked alterations
Circulating eosinophiles (total count) (circulating immune cells; not observed with placebo): significantly more
Circulating lymphocytes (total count) (circulating immune cells; not observed with placebo): significantly more
TSCM formation (TSCM): induces TSCM formation
Activation markers CD69 and CXCR4 in NK cells (PBMCs; after 28 days of UA): reduction
Electron transport chain components (MT-ND5, MT-CO1, MT-CO2) in naïve T cells (PBMCs; after 28 days of UA): induced
Immediate-early genes (NR4A2, DUSP1, FOS, JUN, NFKBIA) in NK cells (PBMCs; after 28 days of UA): reduction
Inflammatory gene signature (MX1, XAF1, ISG15, TNSF10) in B cells (PBMCs; after 28 days of UA): downregulated
Interferon response pathway genes (IFITM2, IER2, STAT1) in monocytes (PBMCs; after 28 days of UA): Strongest downregulation
Mitochondrial genes (MT-CYB, MT-ND5, MT-ATP8, MT-CO1) and NAMPT in monocytes (PBMCs; after 28 days of UA): strong upregulation
Protein Kinase A (PKA) signaling and other immune inhibitory pathways, CD8+ T cells (PBMCs; after 28 days of UA): strongly inhibited
T cell receptor (TCR) signaling, canonical pathway analysis, CD8+ T cells (PBMCs; after 28 days of UA): activation
cAMP-responsive element modulator (CREM) in CD8+ TEM subset (PBMCs; after 28 days of UA): downregulation
Differentially expressed genes in CD8+ T cells, down (PBMCs; [2]): 37 genes
Differentially expressed genes in CD8+ T cells, up (PBMCs; [2]): 52 genes
Genes associated with T cell exhaustion, suppression and hypofunction (NR4A2, CREM, TGFB1, METRNL) in CD8+ T cells (PBMCs; [2]): downregulated
IL7R in CD8+ T cells (PBMCs; [2]): induction
Wnt-associated stemness transcription factors TCF7 and LEF1 in CD8+ T cells (PBMCs; [2]): upregulation
Differentially expressed genes in CD8+ T cells, total (PBMCs; after 28 days of UA compared to placebo, five participants): 89 genes
Reduction of biological (immune cell-blood based) age, PhenoAge clock, median (DNA methylation): about 2 years
